Counter-ions that a name gives are not always drawn. Like-named read-outs stand apart in the source and are kept apart here. Each block holds one compound with its values, some of them ahead of it.
How the values were obtained:
[1] = Phase 1 single- and multiple-dose study: safety and tolerability; assay type: in vivo, human
Experimental: (§1) General Design and Methodology: The purpose of this study is to assess the initial safety, tolerability, pharmacokinetics, and pharmacodynamics of Compound 1 (administered as Capsules of the hydrochloride salt of Compound 1) in healthy adults. […] Data from this study is used to select doses and dose regimens for subsequent clinical studies.
In Part 2, Panels are dosed sequentially.

MGLL = MGLL (Canis lupus familiaris, UniProt A0A8I3PC77); experiment: biochemical
Experimental: In vitro potency was determined using activity-based protein profiling (ABPP) which is a functional proteomic technology that uses chemical probes to covalently modify enzyme active sites in an activity-dependent manner (e.g., only catalytically active enzymes will react and become labeled with the ABPP probe). Identification of the proteins that were labeled by the probes was accomplished using polyacrylamide gel electrophoresis or mass spectrometry.

2-AG [2] = experiment: 2-AG and anandamide concentrations in rat tissues and plasma after oral dose; assay type: in vivo
Description: MGLL target engagement inhibits the hydrolysis of 2-AG, elevating tissue 2-AG concentrations, which can be measured in rodent tissues and fluids by MS. Elevation of 2-AG results in enhanced cannabinoid receptor signaling and physiological responses.
Inhibition of MGLL causes accumulation of 2-AG in the rodent brain and periphery.

2-AG [3] = experiment: Rat plasma 2-AG levels after single PO dose (LC-MS/MS); assay type: in vivo; details: single PO doses up to 30 mg/kg, 4 h
Experimental: […]. MGLL activity was assessed by ABPP analysis in PBMC lysates and plasma 2-AG concentrations were measured by liquid chromatography tandem mass spectrometry (LC-MS/MS).

[4] = Phase 1 single- and multiple-dose study: plasma pharmacokinetics; assay type: in vivo; details: human, po, fasted; for AUC(0-inf): read-out: AUCinf (mean); for half-life: read-out: T1/2 (median) (converted)
Description: as §1
There is a minimum 72-hour period between administration of study drug in Panels A and B. In addition, there is a minimum 2-week washout between Panel B Period 2 and Panel A Period 3 in order to evaluate available preliminary pharmacokinetic data along with safety and tolerability data from the preceding doses before proceeding with dosing in Periods 3 and 4. All doses are administered orally, together with approximately 240 mL of water. Water is otherwise restricted from 1 hour prior to, and for 1 hour after administration of study drug. In each treatment period, with the exception of Panel A Period 4 (food effect treatment period); study drug is administered after an overnight fast (for approximately 8 hours).
The allocation schedule for Periods 2 and 4 (fasted versus fed) are the same such that the same subjects receive active drug or matching placebo in the respective treatment periods.
PK: Descriptive statistics are provided by treatment (Part 1) and by treatment and day (Part 2). Minimum, median, maximum and CV are provided for all PK parameters. Arithmetic mean and standard deviation based on the raw scale are provided for AUC and Cmax. In addition, the percent CV of AUC and Cmax is also provided and calculated according to the following formula: 100×sqrt(exp(s2)−1), where s2 is the observed variance on the natural log-scale. Harmonic mean and jack-knife SD is provided for half-life. Time to steady-state, and evaluation of PK linearity are evaluated in an exploratory fashion.

in vivo = details: rat, po, 0.5 mg/kg
formalin-challenged rats = experiment: Rat formalin paw test
2-AG [5] = experiment: Mouse brain 2-AG concentrations after PO dose; details: single-dose PO
[6] = Panel C (10 mg QD×14 days) or Panel D (20 mg QD×14 days)
[7] = 100 mg, single oral dose 100 mg, Panel A, Period 3 (A3)
[8] = 100 mg, single oral dose 100 mg, Panel B, Period 4 (B4)
[9] = 200 mg, single oral dose 200 mg

MGLL, sequence (A0A8I3PC77 1-304): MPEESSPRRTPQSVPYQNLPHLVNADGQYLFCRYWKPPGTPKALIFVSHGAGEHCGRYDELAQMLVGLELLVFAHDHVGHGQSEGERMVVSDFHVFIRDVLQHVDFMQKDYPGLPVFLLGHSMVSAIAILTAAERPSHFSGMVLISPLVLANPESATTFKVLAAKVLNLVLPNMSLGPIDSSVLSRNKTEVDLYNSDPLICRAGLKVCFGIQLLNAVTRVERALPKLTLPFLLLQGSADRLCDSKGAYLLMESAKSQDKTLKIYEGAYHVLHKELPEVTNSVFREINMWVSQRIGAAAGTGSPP

SMILES: O=C(OC(C(F)(F)F)C(F)(F)F)N1CCN(Cc2ccc(C(F)(F)F)cc2N2CCCC2)CC1 [Compound 1 HCl, 1,1,1,3,3,3-hexafluoropropan-2-yl 4-(2-(pyrrolidin-1-yl)-4-(trifluoromethyl)benzyl)piperazine-1-carboxylate]
- adverse events leading to discontinuation [1, 6]: no adverse events leading to the discontinuation of any subjects
- changes in vital signs, laboratory test values, or ECGs [1, 6]: no clinically significant changes
- vital sign, safety laboratory, or electrocardiographic findings ([1]; healthy male subjects, fasting state, single oral doses up to 200 mg): not associated with any vital sign, safety laboratory, or electrocardiographic findings of note

- IC50 (MGLL; MGLL IC50, Dog Prefrontal Cortex, 30 min pre-incubation at 37° C., mean ± SEM, n = 3): 12 ± 2 nM
- IC50 (MGLL; MGLL IC50, dog MGLL, summary statement for all species): < 30 nM
- Cmax ([4]; 2 mg, single oral dose 2 mg): 2.9 ng/mL
- Tmax ([4]; 2 mg, single oral dose 2 mg): 1.5 h
- AUC(0-inf) ([4]; 2 mg, single oral dose 2 mg): 15.9 ng·h/mL
- half-life ([4]; 2 mg, single oral dose 2 mg): 1.51 h
- Cmax ([4]; 6 mg, single oral dose 6 mg): 10.2 ng/mL
- Tmax ([4]; 6 mg, single oral dose 6 mg): 1.67 h
- AUC(0-inf) ([4]; 6 mg, single oral dose 6 mg): 47 ng·h/mL
- half-life ([4]; 6 mg, single oral dose 6 mg): 2.23 h
- Cmax ([4]; 18 mg, single oral dose 18 mg): 23.5 ng/mL
- Tmax ([4]; 18 mg, single oral dose 18 mg): 2 h
- AUC(0-inf) ([4]; 18 mg, single oral dose 18 mg): 109 ng·h/mL
- half-life ([4]; 18 mg, single oral dose 18 mg): 3.02 h
- Cmax ([4]; 50 mg, single oral dose 50 mg): 59.8 ng/mL
- Tmax ([4]; 50 mg, single oral dose 50 mg): 1.8 h
- AUC(0-inf) ([4]; 50 mg, single oral dose 50 mg): 296 ng·h/mL
- half-life ([4]; 50 mg, single oral dose 50 mg): 3.44 h
- Cmax [4, 7]: 45.7 ng/mL
- Tmax [4, 7]: 3.17 h
- AUC(0-inf) [4, 7]: 289 ng·h/mL
- half-life [4, 7]: 5.82 h
- Cmax [4, 8]: 76 ng/mL
- Tmax [4, 8]: 1.83 h
- AUC(0-inf) [4, 8]: 512 ng·h/mL
- half-life [4, 8]: 3.76 h
- Cmax [4, 9]: 109 ng/mL
- Tmax [4, 9]: 3 h
- AUC(0-inf) [4, 9]: 766 ng·h/mL
- half-life [4, 9]: 3.61 h
- concentration at 4 h (in vivo; blood): 7 nM
- concentration at 4 h (in vivo; brain): 5 nM
- overt behavioral or locomotor perturbations (formalin-challenged rats; rats, at the ED50 dose and at oral doses 20-fold higher): not apparent
SMILES: O=C(OC(C(F)(F)F)C(F)(F)F)N1CCN(Cc2ccc(C(F)(F)F)cc2N2CCCC2)CC1 [Compound 1, 1,1,1,3,3,3-hexafluoropropan-2-yl 4-(2-(pyrrolidin-1-yl)-4-(trifluoromethyl)benzyl)piperazine-1-carboxylate]
- elevation in brain 2-AG concentrations at the Phase 2 ED50 (2-AG [2]; rat formalin model, 0.5 mg/kg PO): approximately 3 fold
- brain levels of the endocannabinoid anandamide (2-AG [2]; rat, single oral doses): not elevated
- increase of 2-AG concentration in plasma (2-AG [2]; rat, single oral doses): 7 fold
- ED50 (2-AG [2]; rat, single oral doses up to 30 mg/kg, 4 hours, read-out: ED50 for increase of brain 2-AG concentrations (average)): 1.3 mg/kg
- increase of plasma 2-AG levels (2-AG [3]): up to 7 fold
- effect of single and repeated administration on pain behaviors (formalin-challenged rats; 1 mg/kg, single vs 5 days QD, n=10, repeat dose group not statistically different from vehicle): numerically reduced pain behaviors to a similar extent
- ED50 for exposure associated with efficacy (formalin-challenged rats; rat formalin nocifensive model): 0.4 µM·h
- Phase 2 ED50, paw licking behavior (formalin-challenged rats; single dose PO, 4 hours pre-test, n=10): 0.5 mg/kg
- effect on nociception in formalin-challenged rats (formalin-challenged rats; single dose up to 10 mg/kg PO, 4 hours pre-test, early (Phase 1) and delayed (Phase 2) phases): dose-dependent antinociceptive effects
- increase of brain 2-AG concentrations (2-AG [5]): up to 30 fold

From patent US11034674B2, “Methods of treating inflammation or neuropathic pain” (H. Lundbeck A/S, priority 2015, dated 2021)
